pIC50: −log10 of the molar value.
System: 266295-075-R-J1-PDC spheroid viability
Assay: Anticancer human tumor 266295-075-R-J1-PDC patient-derived head and neck squamous carcinoma cell line growth inhibition [POLQ]
Conditions: spheroids with HUVEC and MSC; for pIC50: curve of first compound; for viability, T/C: stronger effect = lower value
How it was run: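 Complex spheroid viability model combining PDC tumour cells with endothelial (HUVEC) and MSC stromal cells. Novobiocin, ART-558 or RP6685 were tested singly and in combination with standard and investigational anticancer drugs. Each was titrated in half-log steps from near clinical Cmax, or from 10 microM where Cmax was unknown.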

[1] = second compound 0.0316 µM, first compound 0.00316 µM
[2] = second compound 0.0316 µM, first compound 0.01 µM
[3] = second compound 0.0316 µM, first compound 0.0316 µM
[4] = second compound 0.0316 µM, first compound 0.1 µM
[5] = second compound 0.0316 µM, first compound 0.316 µM
[6] = second compound 0.0316 µM, first compound 1 µM
[7] = second compound 0.1 µM, first compound 0.00316 µM
[8] = second compound 0.1 µM, first compound 0.01 µM
[9] = second compound 0.1 µM, first compound 0.0316 µM
[10] = second compound 0.1 µM, first compound 0.1 µM
[11] = second compound 0.1 µM, first compound 0.316 µM
[12] = second compound 0.1 µM, first compound 1 µM
[13] = second compound 0.316 µM, first compound 0.00316 µM
[14] = second compound 0.316 µM, first compound 0.01 µM
[15] = second compound 0.316 µM, first compound 0.0316 µM
[16] = second compound 0.316 µM, first compound 0.1 µM
[17] = second compound 0.316 µM, first compound 0.316 µM
[18] = second compound 0.316 µM, first compound 1 µM
[19] = second compound 1 µM, first compound 0.00316 µM
[20] = second compound 1 µM, first compound 0.01 µM
[21] = second compound 1 µM, first compound 0.0316 µM
[22] = second compound 1 µM, first compound 0.1 µM
[23] = second compound 1 µM, first compound 0.316 µM
[24] = second compound 1 µM, first compound 1 µM
[25] = second compound 3.16 µM, first compound 0.00316 µM
[26] = second compound 3.16 µM, first compound 0.01 µM
[27] = second compound 3.16 µM, first compound 0.0316 µM
[28] = second compound 3.16 µM, first compound 0.1 µM
[29] = second compound 3.16 µM, first compound 0.316 µM
[30] = second compound 3.16 µM, first compound 1 µM
[31] = second compound 10 µM, first compound 0.00316 µM
[32] = second compound 10 µM, first compound 0.01 µM
[33] = second compound 10 µM, first compound 0.0316 µM
[34] = second compound 10 µM, first compound 0.1 µM
[35] = second compound 10 µM, first compound 0.316 µM
[36] = second compound 10 µM, first compound 1 µM
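Further: spheroids exposed to compounds for seven days before readout.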

C=CCn1c(=O)c2cnc(Nc3ccc(N4CCN(C)CC4)cc3)nc2n1-c1cccc(C(C)(C)O)n1 + Nc1ccc(C#CCN(C(=O)Cc2ncc(C(F)(F)F)cc2C(F)(F)F)c2ccc(F)cc2)nn1
pIC50 (second compound 0.0316 µM): < 6.00 | pIC50 (second compound 0.1 µM): < 6.00 | pIC50 (second compound 0.316 µM): < 6.00 | pIC50 (second compound 1 µM): < 6.00 | pIC50 (second compound 3.16 µM): < 6.00 | pIC50 (second compound 10 µM): < 6.00 | viability, T/C [1]: 102% | viability, T/C [2]: 90.4% | viability, T/C [3]: 101% | viability, T/C [4]: 89.2% | viability, T/C [5]: 86.2% | viability, T/C [6]: 63.8% | viability, T/C [7]: 114% | viability, T/C [8]: 95.8% | viability, T/C [9]: 88.1% | viability, T/C [10]: 125% | viability, T/C [11]: 84.1% | viability, T/C [12]: 68.8% | viability, T/C [13]: 98.7% | viability, T/C [14]: 99.1% | viability, T/C [15]: 84.1% | viability, T/C [16]: 85.2% | viability, T/C [17]: 69.3% | viability, T/C [18]: 65.3% | viability, T/C [19]: 93% | viability, T/C [20]: 96.2% | viability, T/C [21]: 87.7% | viability, T/C [22]: 101% | viability, T/C [23]: 81.3% | viability, T/C [24]: 54.3% | viability, T/C [25]: 102% | viability, T/C [26]: 106% | viability, T/C [27]: 85.2% | viability, T/C [28]: 77.3% | viability, T/C [29]: 72.4% | viability, T/C [30]: 63.5% | viability, T/C [31]: 115% | viability, T/C [32]: 90.6% | viability, T/C [33]: 91.5% | viability, T/C [34]: 109% | viability, T/C [35]: 81.2% | viability, T/C [36]: 57.3%

CC[C@@]1(O)C(=O)OCc2c1cc1n(c2=O)Cc2cc3c(CN(C)C)c(O)ccc3nc2-1 + Cc1cccc(N(C)C(=O)C2C(O)CCN2c2nc(C)cc(C(F)(F)F)c2C#N)c1
pIC50 (second compound 0.0316 µM): < 7.00 | pIC50 (second compound 0.1 µM): < 7.00 | pIC50 (second compound 0.316 µM): < 7.00 | pIC50 (second compound 1 µM): < 7.00 | pIC50 (second compound 3.16 µM): < 7.00 | pIC50 (second compound 10 µM): < 7.00 | viability, T/C (second compound 0.0316 µM, first compound 0.000316 µM): 75% | viability, T/C (second compound 0.0316 µM, first compound 0.001 µM): 85.8% | viability, T/C [1]: 107% | viability, T/C [2]: 83.8% | viability, T/C [3]: 91.3% | viability, T/C [4]: 76.3% | viability, T/C (second compound 0.1 µM, first compound 0.000316 µM): 94.2% | viability, T/C (second compound 0.1 µM, first compound 0.001 µM): 90.1% | viability, T/C [7]: 77.6% | viability, T/C [8]: 81.2% | viability, T/C [9]: 86.6% | viability, T/C [10]: 77.8% | viability, T/C (second compound 0.316 µM, first compound 0.000316 µM): 101% | viability, T/C (second compound 0.316 µM, first compound 0.001 µM): 88% | viability, T/C [13]: 88% | viability, T/C [14]: 86.8% | viability, T/C [15]: 106% | viability, T/C [16]: 93.9% | viability, T/C (second compound 1 µM, first compound 0.000316 µM): 79% | viability, T/C (second compound 1 µM, first compound 0.001 µM): 103% | viability, T/C [19]: 85.2% | viability, T/C [20]: 91.2% | viability, T/C [21]: 92.3% | viability, T/C [22]: 87.7% | viability, T/C (second compound 3.16 µM, first compound 0.000316 µM): 78% | viability, T/C (second compound 3.16 µM, first compound 0.001 µM): 94.2% | viability, T/C [25]: 92.4% | viability, T/C [26]: 87.2% | viability, T/C [27]: 91.9% | viability, T/C [28]: 78.2% | viability, T/C (second compound 10 µM, first compound 0.000316 µM): 122% | viability, T/C (second compound 10 µM, first compound 0.001 µM): 93.8% | viability, T/C [31]: 93.3% | viability, T/C [32]: 109% | viability, T/C [33]: 115% | viability, T/C [34]: 88.4%

CC1COCCN1c1cc(C2(O)CC3CCC(C2)O3)c2cnn(-c3ccn[nH]3)c2n1 (stereo unspecified) + Cc1cccc(N(C)C(=O)C2C(O)CCN2c2nc(C)cc(C(F)(F)F)c2C#N)c1
pIC50 (second compound 0.0316 µM): 6.08 | pIC50 (second compound 0.1 µM): 6.06 | pIC50 (second compound 0.316 µM): 6.04 | pIC50 (second compound 1 µM): 6.25 | pIC50 (second compound 3.16 µM): 6.07 | pIC50 (second compound 10 µM): 6.01 | viability, T/C [3]: 84% | viability, T/C [4]: 74.1% | viability, T/C [5]: 61.3% | viability, T/C [6]: 47% | viability, T/C (second compound 0.0316 µM, first compound 3.16 µM): 36.8% | viability, T/C (second compound 0.0316 µM, first compound 10 µM): 25% | viability, T/C [9]: 86% | viability, T/C [10]: 69.1% | viability, T/C [11]: 76.2% | viability, T/C [12]: 46% | viability, T/C (second compound 0.1 µM, first compound 3.16 µM): 37.5% | viability, T/C (second compound 0.1 µM, first compound 10 µM): 29.7% | viability, T/C [15]: 82.1% | viability, T/C [16]: 74.1% | viability, T/C [17]: 60.6% | viability, T/C [18]: 49% | viability, T/C (second compound 0.316 µM, first compound 3.16 µM): 37.6% | viability, T/C (second compound 0.316 µM, first compound 10 µM): 26.3% | viability, T/C [21]: 94.1% | viability, T/C [22]: 63.6% | viability, T/C [23]: 58.4% | viability, T/C [24]: 45.9% | viability, T/C (second compound 1 µM, first compound 3.16 µM): 40% | viability, T/C (second compound 1 µM, first compound 10 µM): 26.1% | viability, T/C [27]: 89.5% | viability, T/C [28]: 74% | viability, T/C [29]: 60.3% | viability, T/C [30]: 51.5% | viability, T/C (second compound 3.16 µM, first compound 3.16 µM): 34.5% | viability, T/C (second compound 3.16 µM, first compound 10 µM): 31.1% | viability, T/C [33]: 114% | viability, T/C [34]: 88.8% | viability, T/C [35]: 69.1% | viability, T/C [36]: 49.4% | viability, T/C (second compound 10 µM, first compound 3.16 µM): 35.2% | viability, T/C (second compound 10 µM, first compound 10 µM): 28.1%

Reference: PubChem BioAssay AID1963853 (Molecular Pharmacology Branch, DTP, NCI, 2024)
